Common to all, as to type: biochemical
Assay [1] deals with T1, MAO-A enzyme (Homo sapiens, UniProt P21397).
T1 construct: purchased Sigma-Aldrich Chemicals (St. Louis, MO)
T1 sequence (P21397 1-527): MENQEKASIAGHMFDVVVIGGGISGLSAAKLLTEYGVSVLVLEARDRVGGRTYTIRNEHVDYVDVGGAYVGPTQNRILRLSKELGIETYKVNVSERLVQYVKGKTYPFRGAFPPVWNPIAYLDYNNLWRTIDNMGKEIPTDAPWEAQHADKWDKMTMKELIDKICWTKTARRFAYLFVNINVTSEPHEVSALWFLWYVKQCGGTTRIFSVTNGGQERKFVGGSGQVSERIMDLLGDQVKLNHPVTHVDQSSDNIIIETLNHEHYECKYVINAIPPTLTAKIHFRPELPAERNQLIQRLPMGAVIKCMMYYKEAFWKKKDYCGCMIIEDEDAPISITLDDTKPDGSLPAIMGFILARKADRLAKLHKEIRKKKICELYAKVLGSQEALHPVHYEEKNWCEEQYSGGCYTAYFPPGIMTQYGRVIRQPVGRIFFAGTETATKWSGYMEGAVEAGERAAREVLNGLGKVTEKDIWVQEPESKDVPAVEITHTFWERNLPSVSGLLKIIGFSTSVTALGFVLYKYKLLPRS
Description: MAO activity assay, fluorimetric, kynuramine substrate (MAO-A). The note with it: for MAO-A versus MAO-B selectivity: from inhibition rates at 10^−4 M.

Assay [2] deals with T2, human recombinant MAO-B (Homo sapiens, UniProt P27338).
T2 construct: purchased Sigma-Aldrich Chemicals (St. Louis, MO)
T2 sequence (P27338 1-520): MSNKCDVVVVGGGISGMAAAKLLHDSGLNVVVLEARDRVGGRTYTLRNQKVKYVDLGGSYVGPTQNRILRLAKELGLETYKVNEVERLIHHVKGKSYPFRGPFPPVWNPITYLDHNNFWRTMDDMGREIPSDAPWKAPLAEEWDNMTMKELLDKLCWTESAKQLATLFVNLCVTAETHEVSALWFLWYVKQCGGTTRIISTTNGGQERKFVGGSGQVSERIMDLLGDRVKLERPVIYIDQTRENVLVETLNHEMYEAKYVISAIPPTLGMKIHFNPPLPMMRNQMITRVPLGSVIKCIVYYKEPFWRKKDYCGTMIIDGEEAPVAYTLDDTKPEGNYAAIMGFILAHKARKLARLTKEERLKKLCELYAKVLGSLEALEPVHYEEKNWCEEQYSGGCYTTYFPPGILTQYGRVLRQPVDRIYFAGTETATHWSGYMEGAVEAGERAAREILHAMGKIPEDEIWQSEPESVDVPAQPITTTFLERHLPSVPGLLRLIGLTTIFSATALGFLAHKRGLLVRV
Description: MAO activity assay, fluorimetric, kynuramine substrate (MAO-B).

The target of assay [3] is T1, MAO-A enzyme. Description: MAO-A enzyme kinetics (Lineweaver-Burk plots). As for the experimental part:
The nature of MAO-A inhibition, caused by this compound, was investigated by the graphical analysis of steady-state inhibition data.
Figure 2. […] Substrate (kynuramine) concentrations used: 40, 20, 10, 5, 2.5 and 1.25 μM. 1/V: 1/velocity of reaction [1/(nmoles/min/mg protein)], 1/S: 1/substrate concentration (1/μM).
The same materials were used in MAO enzyme kinetic assay. The compound 2e was prepared at IC50 concentration and then added to the wells (100 µL/well). Stock solution (25 mM) of kynuramine was diluted to final concentrations of 40, 20, 10, 5, 2.5 and 1.25 µM and then added to the wells (50 µL/well). After MAO-A enzyme was added to the plate (50 µL/well), incubation period at 37 °C for 20 min was started. The plate was read at 310/340 nm excitation/emission wavelength pair[31]. Control measurement without inhibitor was also determined simultaneously. The results were analyzed in Lineweaver–Burk plots using Microsoft Office Excel 2013.

Entries after “also recorded” stand apart in the source; their conditions may differ. A value given as a limit tells only on which side of the number the result lay.

For the compound `CN1CCN(C(=S)SCC(=O)N2CCN(c3ncccn3)CC2)CC1` [Compound 2a, 2-[4-(Pyrimidin-2-yl)piperazin-1-yl]-2-oxoethyl 4-methylpiperazine-1-carbodithioate], the IC50 in assay [1] and in assay [2] was more than 1000 µM in each case. The MAO-A inhibition % in assay [1] (10^−3 M) is on record as 12.84 ± 0.59%; in assay [1] (10^−4 M), 7.33 ± 0.19%. Also, the “MAO B inhibition %” value in assay [2] (10^−3 M) was determined as 10.23 ± 0.31%; in assay [2] (10^−4 M), 5.37 ± 0.22%.
`CCN1CCN(C(=S)SCC(=O)N2CCN(c3ncccn3)CC2)CC1` [Compound 2b, 2-[4-(Pyrimidin-2-yl)piperazin-1-yl]-2-oxoethyl 4-ethylpiperazine-1-carbodithioate]: the IC50 in assay [1] and in assay [2] was more than 1000 µM in each case. For the same compound, the MAO-A inhibition % in assay [1] (10^−3 M) is reported as 11.52 ± 0.38%; in assay [1] (10^−4 M), 6.86 ± 0.21%. For the same compound, the “MAO B inhibition %” value in assay [2] (10^−3 M) came out at 10.08 ± 0.42%; in assay [2] (10^−4 M), 5.65 ± 0.14%.
`O=C(CSC(=S)N1CCN(CCO)CC1)N1CCN(c2ncccn2)CC1` [Compound 2c, 2-[4-(Pyrimidin-2-yl)piperazin-1-yl]-2-oxoethyl 4-(2-hydroxyethyl)piperazine-1-carbodithioate]: the IC50 in assay [1] and in assay [2] was more than 1000 µM throughout. The MAO-A inhibition % in assay [1] (10^−3 M) turned out to be 15.88 ± 0.55%; in assay [1] (10^−4 M) it was 9.27 ± 0.27%. Also, the “MAO B inhibition %” value in assay [2] (10^−3 M) is listed as 12.30 ± 0.48%; in assay [2] (10^−4 M) it was 7.39 ± 0.25%.
For the compound `CN(C)CCN1CCN(C(=S)SCC(=O)N2CCN(c3ncccn3)CC2)CC1` [Compound 2d, 2-[4-(Pyrimidin-2-yl)piperazin-1-yl]-2-oxoethyl 4-(2-(dimethylamino)ethyl)piperazine-1-carbodithioate], the IC50 in assay [1] and in assay [2] was more than 1000 µM throughout. Also, the MAO-A inhibition % worked out at 18.74 ± 0.52% in assay [1] (10^−3 M) and 7.39 ± 0.30% in assay [1] (10^−4 M). Besides, the “MAO B inhibition %” value in assay [2] (10^−3 M) is 14.37 ± 0.58%; in assay [2] (10^−4 M), 8.40 ± 0.23%.
For `O=C(CSC(=S)N1CCN(C2CCCCC2)CC1)N1CCN(c2ncccn2)CC1` [Compound 2e, 2-[4-(Pyrimidin-2-yl)piperazin-1-yl]-2-oxoethyl 4-cyclohexylpiperazine-1-carbodithioate], the IC50 in assay [1] and in assay [2] was more than 1000 µM throughout. Further, the results for the MAO-A inhibition % in assay [1] (10^−3 M) and in assay [1] (10^−4 M) were 16.75 ± 0.42% and 5.90 ± 0.15%, respectively. Also, the “MAO B inhibition %” value in assay [2] (10^−3 M) is 12.60 ± 0.45%; in assay [2] (10^−4 M) it was 5.22 ± 0.18%.
In the case of `O=C(CSC(=S)N1CCN(c2ccccc2)CC1)N1CCN(c2ncccn2)CC1` [Compound 2f, 2-[4-(Pyrimidin-2-yl)piperazin-1-yl]-2-oxoethyl 4-phenylpiperazine-1-carbodithioate], the IC50 in assay [1] was more than 1000 µM; in assay [2], more than 100 µM. In addition, the MAO-A inhibition % in assay [1] (10^−3 M) amounted to 33.33 ± 1.30%; in assay [1] (10^−4 M), 31.25 ± 0.88%. In assay [2] (10^−4 M), the “MAO B inhibition %” value amounted to 31.15 ± 0.67%.
As for `Cc1ccc(N2CCN(C(=S)SCC(=O)N3CCN(c4ncccn4)CC3)CC2)cc1` [Compound 2g, 2-[4-(Pyrimidin-2-yl)piperazin-1-yl]-2-oxoethyl 4-(p-tolyl)piperazine-1-carbodithioate], the IC50 in assay [1] and in assay [2] was more than 1000 µM each time. In addition, the MAO-A inhibition % in assay [1] (10^−3 M) turned out to be 37.50 ± 1.42%; in assay [1] (10^−4 M) it was 33.33 ± 0.99%. Also, the “MAO B inhibition %” value in assay [2] (10^−3 M) was 18.20 ± 0.82%; in assay [2] (10^−4 M), 10.76 ± 0.33%.
Take `O=C(CSC(=S)N1CCN(c2ccc(Cl)cc2)CC1)N1CCN(c2ncccn2)CC1` [Compound 2h, 2-[4-(Pyrimidin-2-yl)piperazin-1-yl]-2-oxoethyl 4-(4-chlorophenyl)piperazine-1-carbodithioate]: the IC50 in assay [1] and in assay [2] was more than 1000 µM in each case. Besides, the MAO-A inhibition % in assay [1] (10^−3 M) was found to be 13.45 ± 0.38%; in assay [1] (10^−4 M), 6.70 ± 0.22%. The “MAO B inhibition %” value in assay [2] (10^−3 M) is 40.98 ± 1.20%; in assay [2] (10^−4 M), 31.15 ± 1.07%.
Take `O=C(CSC(=S)N1CCN(c2ccc(F)cc2)CC1)N1CCN(c2ncccn2)CC1` [Compound 2i, 2-[4-(Pyrimidin-2-yl)piperazin-1-yl]-2-oxoethyl 4-(4-fluorophenyl)piperazine-1-carbodithioate]: the values for the IC50 in assay [1] and in assay [2] were more than 100 µM and more than 1000 µM, respectively. This compound had an MAO-A inhibition % in assay [1] (10^−4 M) of 39.58 ± 0.95%. In addition, the “MAO B inhibition %” value in assay [2] (10^−3 M) is listed as 44.26 ± 1.13%; in assay [2] (10^−4 M) it was 27.86 ± 0.66%.
Take `O=C(CSC(=S)N1CCN(c2ccc([N+](=O)[O-])cc2)CC1)N1CCN(c2ncccn2)CC1` [Compound 2j, 2-[4-(Pyrimidin-2-yl)piperazin-1-yl]-2-oxoethyl 4-(4-nitrophenyl)piperazine-1-carbodithioate]: the IC50 is 23.1 µM in assay [1] and more than 100 µM in assay [2]. Further, the MAO-A inhibition % in assay [1] (10^−5 M) is recorded as 42.45 ± 1.18%; in assay [1] (10^−6 M), 29.70 ± 0.72%; in assay [1] (10^−7 M), 20.19 ± 0.64%; in assay [1] (10^−8 M), 16.05 ± 0.40%; in assay [1] (10^−9 M), 11.53 ± 0.29%. Besides, in assay [1], the “MAO-A versus MAO-B selectivity” value is reported as “selective MAO-A inhibitory activity; also recorded: selective MAO-A enzyme inhibitors”. Further, the “MAO B inhibition %” value in assay [2] (10^−4 M) was found to be 40.98 ± 0.94%. In addition, the “nature of MAO-A inhibition” value in assay [3] (Lineweaver–Burk plots, kynuramine 40-1.25 μM) is listed as “mix-typed inhibitor”. The Vmax in assay [3] (nonlinear regression, MAO-A, kynuramine) is 5.34.
On to `O=C(CSC(=S)N1CCN(Cc2ccccc2)CC1)N1CCN(c2ncccn2)CC1` [Compound 2k], for which the IC50 in assay [1] and in assay [2] was more than 1000 µM each time. In addition, the results for the MAO-A inhibition % in assay [1] (10^−3 M) and in assay [1] (10^−4 M) were 19.81 ± 0.59% and 6.15 ± 0.18%, respectively. The “MAO B inhibition %” value in assay [2] (10^−3 M) came out at 13.08 ± 0.56%; in assay [2] (10^−4 M), 5.87 ± 0.22%.
Regarding `Cc1ccc(CN2CCN(C(=S)SCC(=O)N3CCN(c4ncccn4)CC3)CC2)cc1` [Compound 2l, 2-[4-(Pyrimidin-2-yl)piperazin-1-yl]-2-oxoethyl 4-(4-methylbenzyl)piperazine-1-carbodithioate], the IC50 in assay [1] was more than 1000 µM. The results for the MAO-A inhibition % in assay [1] (10^−3 M) and in assay [1] (10^−4 M) were 32.31 ± 0.86% and 15.38 ± 0.61%, respectively. In addition, the “MAO B inhibition %” value in assay [2] (10^−4 M) is recorded as 15.00 ± 0.68%.
As to `O=C(CSC(=S)N1CCN(C(c2ccccc2)c2ccccc2)CC1)N1CCN(c2ncccn2)CC1` [Compound 2m, 2-[4-(Pyrimidin-2-yl)piperazin-1-yl]-2-oxoethyl 4-benzhydrylpiperazine-1-carbodithioate], the IC50 is 24.1 µM in assay [1] and more than 100 µM in assay [2]. In addition, the MAO-A inhibition % in assay [1] (10^−5 M) stood at 33.65 ± 0.93%; in assay [1] (10^−6 M), 28.16 ± 0.87%; in assay [1] (10^−7 M), 21.88 ± 0.74%; in assay [1] (10^−8 M), 15.77 ± 0.68%; in assay [1] (10^−9 M), 10.62 ± 0.41%. For the same compound, in assay [1], the “MAO-A versus MAO-B selectivity” value is recorded as “selective MAO-A inhibitory activity; also recorded: selective MAO-A enzyme inhibitors”. The “MAO B inhibition %” value in assay [2] (10^−4 M) turned out to be 40.00 ± 0.99%.
Consider `O=C(CSC(=S)N1CCN(c2ncccn2)CC1)N1CCN(c2ncccn2)CC1` [Compound 2n, 2-[4-(Pyrimidin-2-yl)piperazin-1-yl]-2-oxoethyl 4-(pyrimidin-2-yl)piperazine-1-carbodithioate], for which the IC50 in assay [1] and in assay [2] was more than 1000 µM throughout. The MAO-A inhibition % is listed as 31.25 ± 0.94% in assay [1] (10^−3 M) and 25.00 ± 0.62% in assay [1] (10^−4 M). The “MAO B inhibition %” value in assay [2] (10^−3 M) worked out at 29.51 ± 0.74%; in assay [2] (10^−4 M) it was 22.95 ± 0.69%.

What is called IC50 is the concentration that inhibits the measured activity by half.

Values taken from PMC6009961, “Novel 1-(2-pyrimidin-2-yl)piperazine derivatives as selective monoamine oxidase (MAO)-A inhibitors” (Journal of Enzyme Inhibition and Medicinal Chemistry, 2017).
